In the supplement of paper PMC10307832:

Tests used:
Assay in all cases: relative viability (nuclei count vs DMSO), 5 days (fraction); higher = more cells survive
Adavosertib + Luminespib = compound: C=CCn1c(=O)c2cnc(Nc3ccc(N4CCN(C)CC4)cc3)nc2n1-c1cccc(C(C)(C)O)n1 [Adavosertib] + CCNC(=O)c1noc(-c2cc(C(C)C)c(O)cc2O)c1-c1ccc(CN2CCOCC2)cc1 [Luminespib] (partner 0.01 µM)
Summary of the method: (§1)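 Lung cancer cell lines were pin-tool dosed in 1536-well plates on the day after seeding, with either a lone drug or a fixed anchor-drug dose plus five library-drug doses (not always all listed) in √10 steps. Nuclei were counted on 4× images after 5 days. Relative viability is the ratio of treated-well to vehicle-well nuclei counts, with each value a median of duplicate plates.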

Adavosertib + Dasatinib = compound: C=CCn1c(=O)c2cnc(Nc3ccc(N4CCN(C)CC4)cc3)nc2n1-c1cccc(C(C)(C)O)n1 [Adavosertib] + Cc1nc(Nc2ncc(C(=O)Nc3c(C)cccc3Cl)s2)cc(N2CCN(CCO)CC2)n1 [Dasatinib] (partner 0.075 µM)
Summary of the method: as §1

Adavosertib + Vorinostat = compound: C=CCn1c(=O)c2cnc(Nc3ccc(N4CCN(C)CC4)cc3)nc2n1-c1cccc(C(C)(C)O)n1 [Adavosertib] + O=C(CCCCCCC(=O)Nc1ccccc1)NO [Vorinostat] (partner 1 µM)
Summary of the method: as §1

Nelarabine + Tozasertib = compound: COc1nc(N)nc2c1ncn2[C@@H]1O[C@H](CO)[C@@H](O)[C@@H]1O [Nelarabine] + Cc1cc(Nc2cc(N3CCN(C)CC3)nc(Sc3ccc(NC(=O)C4CC4)cc3)n2)n[nH]1 [Tozasertib] (partner 0.1 µM)
Summary of the method: as §1

Cell Line | relative viability (Adavosertib + Luminespib; first compound 0.03162 µM) | relative viability (Adavosertib + Luminespib; first compound 0.1 µM) | relative viability (Adavosertib + Luminespib; first compound 0.3162 µM) | relative viability (Adavosertib + Dasatinib; first compound 0.03162 µM) | relative viability (Adavosertib + Dasatinib; first compound 0.1 µM) | relative viability (Adavosertib + Dasatinib; first compound 0.3162 µM) | relative viability (Adavosertib + Vorinostat; first compound 0.01 µM) | relative viability (Adavosertib + Vorinostat; first compound 0.03162 µM) | relative viability (Adavosertib + Vorinostat; first compound 0.1 µM) | relative viability (Adavosertib + Vorinostat; first compound 0.3162 µM) | relative viability (Nelarabine + Tozasertib; first compound 0.01 µM) | relative viability (Nelarabine + Tozasertib; first compound 0.03162 µM) | relative viability (Nelarabine + Tozasertib; first compound 0.1 µM) | relative viability (Nelarabine + Tozasertib; first compound 0.3162 µM) | relative viability (Nelarabine + Tozasertib; first compound 1 µM) | relative viability (Adavosertib + Luminespib; first compound 0.01 µM) | relative viability (Adavosertib + Dasatinib; first compound 0.01 µM)
SW 900 | 0.195 | 0.169 | 0.156 | 0.607 | 0.645 | 0.36 | 0.445 | 0.492 | 0.424 | 0.268 | 0.617 | 0.476 | 0.635 | 0.611 | 0.532 |  | 
SW 1573 | 0.226 | 0.192 | 0.198 | 0.424 | 0.633 | 0.215 | 0.807 | 0.687 | 0.904 | 0.758 | 0.167 | 0.199 | 0.134 | 0.23 | 0.162 | 0.177 | 0.62
UMC-11 | 0.936 | 1.15 | 1 | 0.414 | 0.517 | 0.461 | 0.438 | 0.405 | 0.346 | 0.308 | 0.185 | 0.204 | 0.378 | 0.206 | 0.204 | 1.02 | 0.489
